Assay results: patent publication US20260345728A1, “COMBINATION THERAPY WITH BRAF INHIBITORS FOR THE TREATMENT OF CANCER” (FUNDACIÓ PRIVADA INSTITUT D'INVESTIGACIÓ ONCOLÒGICA DE VALL …, priority 2023, published 2026)

Experiments:
late-stage melanoma = settings: cited from earlier work
melanoma SkMel37 cells = assay: AlamarBlue cell viability with ZIP synergy scoring (SynergyFinder 3.0), SkMel37; assay type: cell-based, human; settings: single agent; 5 days; FIG. 1
Procedure: A human melanoma cell line with mutations in BRAF (BRAF^V600E) (SkMel37) was used. Cells were plated in 96 well plates and treated on the following day with increasing concentrations of dabrafenib and Omomyc, alone or in combination. After 5 days of treatment, media was removed and AlamarBlue™ Cell Viability Reagent was added to each well, incubated for 3 hours until metabolized, and fluorescence was read with a microplate reader using an excitation between 530-560 and an emission at 590 nm.
Synergy was evaluated using SynergyFinder 3.0 web application derived from lanevsky A et al. Nucleic Acids Res. 2022; 50(W1):W739-W743.
Synergy scores can be interpreted as the average excess response due to drug interactions. Synergy scores close to 0 give limited confidence in synergy or antagonism. So, when the synergy scores are: less than −10, the interaction between two drugs is likely to be antagonistic. From −10 to 10, the interaction between two drugs is likely to be additive. Greater than 10, the interaction between two drugs is likely to be synergistic.

[1] = system: wild type and mutant BRAF metastatic melanoma; settings: cited from earlier work
mutant BRAF = settings: cited from earlier work

Row | SMILES | tumors that develop resistance to the treatment (late-stage melanoma) [%] | reduction of viability of the cells (melanoma SkMel37 cells) | off-target side-effects ([1]; human, in vivo) | clinical activity ([1]; monotherapy or in combination with dacarbazine) | selectivity for mutant BRAF (mutant BRAF)
1 | CCCS(=O)(=O)Nc1ccc(F)c(C(=O)c2c[nH]c3ncc(-c4ccc(Cl)cc4)cc23)c1F [vemurafenib] | 20 | – | – | – | –
2 | CC(C)(C)c1nc(-c2cccc(NS(=O)(=O)c3c(F)cccc3F)c2F)c(-c2ccnc(N)n2)s1 [dabrafenib] | 20 | significantly reduces the viability of the cells | – | – | –
3 | CNC(=O)c1cc(Oc2ccc(NC(=O)Nc3ccc(Cl)c(C(F)(F)F)c3)cc2)ccn1 [sorafenib] | – | – | intolerable off-target side-effects | failed to demonstrate any activity | unable to selectively target mutant BRAF
